Data: US20200405696A1, “INHIBITORS OF INDOLEAMINE 2,3-DIOXYGENASE AND/OR TRYPTOPHAN 2,3-DIOXYGENASE” (IDORSIA PHARMACEUTICALS LTD, priority 2018, published 2020)

Legend:
[1] = biological target: T1, Recombinant human TDO comprising amino acids 19-407 (Homo sapiens, UniProt P48775); test: TDO2 enzymatic assay (NFK quantified by LCMS); format: biochemical; conditions: 15 nM enzyme, 200 μM L-tryptophan, pH7, 30 minutes pre-incubation at RT; mean values when measured multiple times; read-out: hTDO activity (IC50 in nM)
T1 construct: Recombinant human TDO comprising amino acids 19-407 with a N-terminal hexahistidine tag; hexahistidine (His6) (N); made in house; host or cells: E. coli
T1 sequence (P48775 19-406 limits assumed): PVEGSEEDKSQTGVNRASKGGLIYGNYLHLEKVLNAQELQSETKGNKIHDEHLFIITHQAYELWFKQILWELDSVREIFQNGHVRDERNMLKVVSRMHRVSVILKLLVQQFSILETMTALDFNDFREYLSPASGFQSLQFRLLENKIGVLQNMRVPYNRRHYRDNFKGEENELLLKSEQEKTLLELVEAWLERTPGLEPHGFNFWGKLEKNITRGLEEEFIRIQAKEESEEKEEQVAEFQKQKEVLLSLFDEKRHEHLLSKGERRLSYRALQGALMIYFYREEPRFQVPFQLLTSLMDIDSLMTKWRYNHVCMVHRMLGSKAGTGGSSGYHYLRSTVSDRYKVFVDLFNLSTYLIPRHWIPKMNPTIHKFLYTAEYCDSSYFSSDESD
Method in brief: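 NFK formed over 30 min at RT from 200 μM L-tryptophan was measured by LCMS, normalized to d5-tryptophan, after compound (0.5 nM–10 μM, duplicates, 0.6% DMSO) was preincubated 30 min with 15 nM recombinant His-tagged TDO 19-407 in phosphate buffer pH 7. IC50 from four-parameter logistic fit; repeats averaged.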

[2] = biological target: T2, Recombinant full-length human IDO1 (Homo sapiens, UniProt P14902); test: IDO1 enzymatic assay (NFK quantified by LCMS); format: biochemical; conditions: 2 nM enzyme, 5 μM L-tryptophan, pH6.5, 30 minutes pre-incubation at RT; mean values when measured multiple times; read-out: hIDO activity (IC50 in nM)
T2 construct: Recombinant full-length human IDO1 with a N-terminal hexahistidine tag; hexahistidine (His6) (N); made in house; host or cells: E. coli
T2 sequence (P14902 whole entry): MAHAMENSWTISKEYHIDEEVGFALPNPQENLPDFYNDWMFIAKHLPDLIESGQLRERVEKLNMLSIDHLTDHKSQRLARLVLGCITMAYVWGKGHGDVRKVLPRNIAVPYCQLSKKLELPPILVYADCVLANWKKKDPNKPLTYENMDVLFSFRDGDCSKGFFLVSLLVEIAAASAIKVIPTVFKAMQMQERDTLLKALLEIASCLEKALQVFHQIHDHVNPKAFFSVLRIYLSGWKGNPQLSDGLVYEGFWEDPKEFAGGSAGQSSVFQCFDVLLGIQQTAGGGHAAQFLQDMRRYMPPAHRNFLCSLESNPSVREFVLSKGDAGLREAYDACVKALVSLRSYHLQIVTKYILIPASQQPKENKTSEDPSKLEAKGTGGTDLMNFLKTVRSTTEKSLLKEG
Method in brief: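 IC50 comes from four-parameter logistic fits of duplicate data, with NFK quantified by LCMS and normalized to L-Trp-(indole-d5). Compound (0.5 nM–10 μM) was preincubated 30 min at RT with 2 nM E. coli-expressed IDO1 before a 30 min reaction with 5 μM tryptophan in pH 6.5 buffer containing ascorbate and methylene blue.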

| Structure (SMILES) | IC50 [1] [nM] | IC50 [2] [nM] |
| --- | --- | --- |
| COc1ccc(-n2cc(C(O)c3c(C(C)(F)F)sc4cncn34)nn2)cc1 (racemic) [Example 257, rac-[2-(1,1-Difluoro-ethyl)-imidazo[5,1-b]thiazol-3-yl]-[1-(4-methoxy-phenyl)-1H-[1,2,3]triazol-4-yl]-methanol] | > 10200 | 17.5 |
| OC(c1cn(-c2ccc3c(Cl)n[nH]c3c2)nn1)c1c(C2CC2)sc2cncn12 (racemic) [Example 258, rac-[1-(3-Chloro-1H-indazol-6-yl)-1H-[1,2,3]triazol-4-yl]-(2-cyclopropyl-imidazo[5,1-b]thiazol-3-yl)-methanol] | > 10200 | 34 |
| COc1ccc(-n2cc(C(O)c3c(C4=CCCC4)sc4cncn34)nn2)cc1 (racemic) [Example 259, rac-(2-(Cyclopent-1-enyl)-imidazo[5,1-b]thiazol-3-yl)-[1-(4-methoxy-phenyl)-1H-[1,2,3]triazol-4-yl]-methanol] | > 10200 | 85.6 |
| OC(c1cnn(-c2cccnc2)c1)c1c(C2CC2)sc2cncn12 (racemic) [Example 260, rac-(2-Cyclopropyl-imidazo[5,1-b]thiazol-3-yl)-(1-pyridin-3-yl-1H-pyrazol-4-yl)-methanol] | 6510 | 43.2 |
| COc1ccc(-n2cc(C(O)c3c(C)sc4cncn34)nn2)cc1 (racemic) [Example 261, rac-[1-(4-Methoxy-phenyl)-1H-[1,2,3]triazol-4-yl]-(2-methyl-imidazo[5,1-b]thiazol-3-yl)-methanol] | > 10200 | 51.7 |
| COc1ccc(-n2cc(C(O)c3c(C=C(C)C)sc4cncn34)nn2)cc1 (racemic) [Example 262, rac-[1-(4-Methoxy-phenyl)-1H-[1,2,3]triazol-4-yl]-[2-(2-methyl-propenyl)-imidazo[5,1-b]thiazol-3-yl]-methanol] | > 10200 | 83.2 |
| CC=Cc1sc2cncn2c1C(O)c1cn(-c2ccc(OC)cc2)nn1 (racemic) [Example 263, rac-[1-(4-Methoxy-phenyl)-1H-[1,2,3]triazol-4-yl]-[((E)-2-(prop-1-enyl))-imidazo[5,1-b]thiazol-3-yl]-methanol] | 830 | 20.5 |
| Oc1ccc(-n2cc(C(O)c3c(-c4ccccc4)sc4cncn34)nn2)cc1Cl (racemic) [Example 264, rac-2-Chloro-4-{4-[hydroxy-(2-phenyl-imidazo[5,1-b]thiazol-3-yl)-methyl]-[1,2,3]triazol-1-yl}-phenol] | 5890 | 93.9 |
| OC(c1cn(-c2ccc(OCC3CC3)c(Cl)c2)nn1)c1c(-c2ccccc2)sc2cncn12 (racemic) [Example 265, rac-[1-(3-Chloro-4-cyclopropylmethoxy-phenyl)-1H-[1,2,3]triazol-4-yl]-(2-phenyl-imidazo[5,1-b]thiazol-3-yl)-methanol] | > 10200 | 442 |
| OC(c1cn(-c2ccc(OCC3(F)COC3)c(Cl)c2)nn1)c1c(-c2ccccc2)sc2cncn12 (racemic) [Example 266, rac-{1-[3-Chloro-4-(3-fluoro-oxetan-3-ylmethoxy)-phenyl]-1H-[1,2,3]triazol-4-yl}-(2-phenyl-imidazo[5,1-b]thiazol-3-yl)-methanol] | > 10200 | 179 |
| OCCCOc1ccc(-n2cc(C(O)c3c(-c4ccccc4)sc4cncn34)nn2)cc1Cl (racemic) [Example 267, rac-3-(2-Chloro-4-{4-[hydroxy-(2-phenyl-imidazo[5,1-b]thiazol-3-yl)-methyl]-[1,2,3]triazol-1-yl}-phenoxy)-propan-1-ol] | > 10200 | 122 |
| CC(C)(O)CCOc1ccc(-n2cc(C(O)c3c(-c4ccccc4)sc4cncn34)nn2)cc1Cl (racemic) [Example 268, rac-4-(2-Chloro-4-{4-[hydroxy-(2-phenyl-imidazo[5,1-b]thiazol-3-yl)-methyl]-[1,2,3]triazol-1-yl}-phenoxy)-2-methyl-butan-2-ol] | > 10200 | 210 |
| C=C(C)c1sc2cncn2c1C(O)c1cn(-c2ccc(OC)cc2)nn1 (racemic) [Example 269, rac-(2-Isopropenyl-imidazo[5,1-b]thiazol-3-yl)-[1-(4-methoxy-phenyl)-1H-[1,2,3]triazol-4-yl]-methanol] | > 10200 | 7.26 |
| COc1ccc(-n2cc(C(O)c3c(/C=C/C4CC4)sc4cncn34)nn2)cc1 (racemic) [Example 270, rac-[2-((E)-2-Cyclopropyl-vinyl)-imidazo[5,1-b]thiazol-3-yl]-[1-(4-methoxy-phenyl)-1H-[1,2,3]triazol-4-yl]-methanol] | > 10200 | 71.5 |
| CCCC=Cc1sc2cncn2c1C(O)c1cn(-c2ccc(OC)cc2)nn1 (racemic) [Example 271, rac-[1-(4-Methoxy-phenyl)-1H-[1,2,3]triazol-4-yl]-[((E)-2-(pent-1-enyl))-imidazo[5,1-b]thiazol-3-yl]-methanol] | > 10200 | 225 |
| CCc1sc2cncn2c1C(O)c1cn(-c2ccc(N)c(Cl)c2)nn1 (racemic) [Example 272, rac-[1-(4-Amino-3-chloro-phenyl)-1H-[1,2,3]triazol-4-yl]-(2-ethyl-imidazo[5,1-b]thiazol-3-yl)-methanol] | 3840 | 4.44 |
| COc1ccc(-n2cc(C(O)c3c(-c4cnn(C)c4)sc4cncn34)nn2)cc1 (racemic) [Example 273, rac-[1-(4-Methoxy-phenyl)-1H-[1,2,3]triazol-4-yl]-[2-(1-methyl-1H-pyrazol-4-yl)-imidazo[5,1-b]thiazol-3-yl]-methanol] | > 10200 | 43.6 |
| COc1ccc(-n2nnc(C(O)c3c(C4CC4)sc4cncn34)c2C(C)(C)C)cc1 (racemic) [Example 274, rac-[5-tert-Butyl-1-(4-methoxy-phenyl)-1H-[1,2,3]triazol-4-yl]-(2-cyclopropyl-imidazo[5,1-b]thiazol-3-yl)-methanol] | > 10200 | 36 |
| Nc1ccc(-n2cc(C(O)c3c(C4CC4)sc4cncn34)nn2)cc1Cl (racemic) [Example 278, rac-[1-(4-Amino-3-chloro-phenyl)-1H-[1,2,3]triazol-4-yl]-(2-cyclopropyl-imidazo[5,1-b]thiazol-3-yl)-methanol] | > 10200 | 8.71 |
| CCc1c(C(O)c2c(C3CC3)sc3cncn23)nnn1-c1ccc(OC)cc1 (racemic) [Example 279, rac-(2-Cyclopropyl-imidazo[5,1-b]thiazol-3-yl)-[5-ethyl-1-(4-methoxy-phenyl)-1H-[1,2,3]triazol-4-yl]-methanol] | > 10200 | 13.6 |
| COc1ccc(-n2nnc(C(O)c3c(C4CC4)sc4cncn34)c2C(C)C)cc1 (racemic) [Example 280, rac-(2-Cyclopropyl-imidazo[5,1-b]thiazol-3-yl)-[5-isopropyl-1-(4-methoxy-phenyl)-1H-[1,2,3]triazol-4-yl]-methanol] | > 10200 | 53.2 |
| COc1ccc(-n2nnc(C(O)c3c(C4CC4)sc4cncn34)c2C2CC2)cc1 (racemic) [Example 281, rac-(2-Cyclopropyl-imidazo[5,1-b]thiazol-3-yl)-[5-cyclopropyl-1-(4-methoxy-phenyl)-1H-[1,2,3]triazol-4-yl]-methanol] | 9020 | 13.7 |
